According to patent US20050181457A1, “FcyrIII signaling inhibitor assay” (priority 2002, published 2005):

System: FcγRIII signaling
Assay: FcγRIII signaling inhibitor assay: IgG2a-complex stimulated DC18 C10 cells, hTNFα promoter-luciferase reporter
Assay type: cell-based, mouse
Conditions: DC18 C10 cells stimulated with IgG2a complexes; inhibitor at its described IC50 concentration; FIG. 3
Experimental: Cells are transfected by electroporation at optimised conditions (200V, 960 pF) with a TNFα promoter—luciferase—TNFα 3′ end construct and plated in 10 ml of medium immediately after electroporation and purified by Lymphoprep the next day. 1×10^4 viable cells per well are plated in 96 well microtiter plates in 100 μl of medium each plus 250 μg/ml of geneticin (G418). Two days later 100 μl of fresh medium are added. Every second day 100 μl of medium are removed and substituted by 100 μl of fresh medium. Stable clones are selected by conventional cell culture methods and single cell cloning. […] The best responder is subjected to one round of further limited dilution cloning (single cell cloning) and named DC18 clone10 (=DC18 C10). This clone is selected for all further studies.
1×10^4 cells are seeded in 50 μl medium per well (Optiplate, Packard). Incubation with candidate compounds is done for 45 minutes prior to stimulation with 5 μg/ml of murine IgG of different subtypes complexed either with 10 μg/ml of DNP-BSA or 30 μg/ml of rabbit anti mouse Ig F(ab′)2 fragments. Stimulation is carried on for further 4 hours. Subsequently 13 μl of a 5 times concentrated reporter lysis buffer (Promega) are added and cells are lysed by freeze-(−80°) thaw cycle. For the readout 50 μl of luciferase substrate (Promega) are added and luciferase activity is measured in a MicroBetaJet (Wallac). […]

SMILES: O=c1cc(-c2ccc(O)cc2)oc2cc(O)cc(O)c12 [Apigenin]
- inhibition of IgG2a complexes-provoked luciferase induction (readout): inhibits IgG2a complexes-provoked luciferase induction
